Results on 56 compounds are retold here after US8101550B2, “Anthranilic acid diamide derivative with hetero-aromatic and hetero-cyclic substituents” (Bayer Cropscience AG, priority 2006, dated 2012).

One data set is described as follows: log P determination by HPLC on reverse-phase column (EEC Directive 79/831 Annex V.A8). Type of data set: physicochemical.
Details: not given
How it is done:
The log P values stated in the foregoing tables and preparation examples are determined in accordance with EEC Directive 79/831 Annex V.A8 by means of HPLC (High Performance Liquid Chromatography) on a reverse-phase column (C 18). Temperature: 43° C.
The determination by LC-MS in the acidic range takes place at a pH of 2.7 using 0.1% aqueous formic acid and acetonitrile (containing 0.1% formic acid) as eluents; linear gradient from 10% acetonitrile to 95% acetonitrile.
Calibration is with unbranched alkan-2-ones (having 3 to 16 carbon atoms) of known log P value (log P values determined from the retention times by linear interpolation between two successive alkanones).
`Cc1cc(Cl)cc(C(=O)NC(C)C)c1NC(=O)c1cc(Cn2nnc(-c3ccc(Br)cc3)n2)nn1-c1ncccc1Cl` [I-1-151]: the logP worked out at 4.20.
Still for that read-out and setting: next, `CSC[C@H](C)NC(=O)c1cc(Cl)cc(C)c1NC(=O)c1cc(Cn2nnc(-c3ccc(Br)cc3)n2)nn1-c1ncccc1Cl` [I-1-152]: 4.41; `CNC(=O)c1cc(Cl)cc(C)c1NC(=O)c1cc(Cn2cnc(-c3ccc(Cl)cc3)n2)nn1-c1ncccc1Cl` [I-1-153]: 3.07.
The same measure, in the same setting: next, `Cc1cc(Cl)cc(C(=O)NC(C)C)c1NC(=O)c1cc(Cn2cnc(-c3ccc(Cl)cc3)n2)nn1-c1ncccc1Cl` [I-1-154]: 3.56; `CNC(=O)c1cc(Cl)cc(C)c1NC(=O)c1cc(Cn2nnc(-c3cc(Cl)nc(Cl)c3)n2)nn1-c1ncccc1Cl` [I-1-155]: 3.69.
Consider `Cc1cc(Cl)cc(C(=O)NC(C)C)c1NC(=O)c1cc(Cn2nnc(-c3cc(Cl)nc(Cl)c3)n2)nn1-c1ncccc1Cl` [I-1-156], for which the logP is listed as 4.17.
Still for that read-out and setting: the result for `CSC[C@H](C)NC(=O)c1cc(Cl)cc(C)c1NC(=O)c1cc(Cn2nnc(-c3cc(Cl)nc(Cl)c3)n2)nn1-c1ncccc1Cl` [I-1-157] reads 4.36; that for `CSC[C@H](C)NC(=O)c1cc(Cl)cc(C)c1NC(=O)c1cc(Cn2nnc(-c3ccc(Cl)nc3)n2)nn1-c1ncccc1Cl` [I-1-158], 3.67; that for `CSC[C@H](C)NC(=O)c1cc(Cl)cc(C)c1NC(=O)c1cc(Cn2cnc(-c3ccc(Cl)nc3)n2)nn1-c1ncccc1Cl` [I-1-159], 3.78.
On the same count and under the same terms, the result for `CNC(=O)c1cc(Cl)cc(C)c1NC(=O)c1cc(Cn2cnc(C(C)(C)C)n2)nn1-c1ncccc1Cl` [I-1-160] reads 2.39; that for `Cc1cc(Cl)cc(C(=O)NC(C)C)c1NC(=O)c1cc(Cn2cnc(C(C)(C)C)n2)nn1-c1ncccc1Cl` [I-1-161], 2.87.
Still for that read-out and setting: next, `CSC[C@H](C)NC(=O)c1cc(Cl)cc(C)c1NC(=O)c1cc(Cn2cnc(C(C)(C)C)n2)nn1-c1ncccc1Cl` [I-1-162]: 3.10.
`CNC(=O)c1cc(Cl)cc(C)c1NC(=O)c1cc(Cn2nnnc2-c2ccc(C(F)(F)F)cc2)nn1-c1ncccc1Cl` [I-1-163] showed a logP of 3.15.
Same read-out and setting: next, `CNC(=O)c1cc(Cl)cc(C)c1NC(=O)c1cc(Cn2nnc(-c3ccccc3)n2)nn1-c1ncccc1Cl` [I-1-165]: 3.09.
On the same count and under the same terms, the result for `Cc1cc(Cl)cc(C(=O)NC(C)C)c1NC(=O)c1cc(Cn2nnc(-c3ccccc3)n2)nn1-c1ncccc1Cl` [I-1-166] reads 3.60; that for `Cc1cc(Cl)cc(C(=O)N=S(C(C)C)C(C)C)c1NC(=O)c1cc(Cn2nc(C(F)(F)F)nc2C(F)(F)F)nn1-c1ncccc1Cl` [I-1-167], 4.44.
For the compound `Cc1cc(Cl)cc(C(=O)NC(C)C)c1NC(=O)c1cc(Cn2nnn(-c3ccc(Cl)cc3)c2=O)nn1-c1ncccc1Cl` [I-1-168], the logP came to 3.79.
Same read-out and setting: the result for `Cc1cc(C#N)cc(C(=O)NC(C)C)c1NC(=O)c1cc(Cn2cc(C(F)(F)C(F)(F)F)c(C(F)(F)C(F)(F)F)n2)nn1-c1ncccc1Cl` [I-1-169] reads 4.55; that for `CNC(=O)c1cc(C#N)cc(C)c1NC(=O)c1cc(Cn2cc(C(F)(F)C(F)(F)F)c(C(F)(F)C(F)(F)F)n2)nn1-c1ncccc1Cl` [I-1-170], 4.08; that for `CNC(=O)c1cc(C#N)cc(C)c1NC(=O)c1cc(Cn2cc(Cl)c(C(F)(F)C(F)(F)F)n2)nn1-c1ncccc1Cl` [I-1-171], 3.44.
Consider `Cc1cc(C#N)cc(C(=O)NC(C)C)c1NC(=O)c1cc(Cn2cc(Cl)c(C(F)(F)C(F)(F)F)n2)nn1-c1ncccc1Cl` [I-1-172], for which the logP was 3.87.
The same measure, in the same setting: next, `Cc1cc(C#N)cc(C(=O)NC2CC2)c1NC(=O)c1cc(Cn2cc(Cl)c(C(F)(F)C(F)(F)F)n2)nn1-c1ncccc1Cl` [I-1-173]: 3.59; `Cc1cc(C#N)cc(C(N)=O)c1NC(=O)c1cc(Cn2cc(Cl)c(C(F)(F)C(F)(F)F)n2)nn1-c1ncccc1Cl` [I-1-174]: 3.20; `Cc1cc(C#N)cc(C(=O)NCC#N)c1NC(=O)c1cc(Cn2cc(Cl)c(C(F)(F)C(F)(F)F)n2)nn1-c1ncccc1Cl` [I-1-175]: 3.40.
The same measure, in the same setting: the result for `CNC(=O)c1cc(C#N)cc(C)c1NC(=O)c1cc(Cn2nc(C(F)(F)F)nc2C(F)(F)F)nn1-c1ncccc1Cl` [I-1-176] reads 3.11; that for `Cc1cc(C#N)cc(C(=O)NC(C)C)c1NC(=O)c1cc(Cn2nc(C(F)(F)F)nc2C(F)(F)F)nn1-c1ncccc1Cl` [I-1-177], 3.53; that for `Cc1cc(C#N)cc(C(=O)NC2CC2)c1NC(=O)c1cc(Cn2nc(C(F)(F)F)nc2C(F)(F)F)nn1-c1ncccc1Cl` [I-1-178], 3.31.
On the same count and under the same terms, next, `Cc1cc(C#N)cc(C(N)=O)c1NC(=O)c1cc(Cn2nc(C(F)(F)F)nc2C(F)(F)F)nn1-c1ncccc1Cl` [I-1-179]: 2.91; `Cc1cc(C#N)cc(C(=O)NCC#N)c1NC(=O)c1cc(Cn2nc(C(F)(F)F)nc2C(F)(F)F)nn1-c1ncccc1Cl` [I-1-180]: 3.11; `CNC(=O)c1cc(C#N)cc(C)c1NC(=O)c1cc(Cn2ccc(C(F)(F)F)n2)nn1-c1ncccc1Cl` [I-1-181]: 2.57.
Consider `Cc1cc(C#N)cc(C(=O)NC(C)C)c1NC(=O)c1cc(Cn2ccc(C(F)(F)F)n2)nn1-c1ncccc1Cl` [I-1-182], for which the logP amounted to 2.96.
For the compound `Cc1cc(C#N)cc(C(=O)NC2CC2)c1NC(=O)c1cc(Cn2ccc(C(F)(F)F)n2)nn1-c1ncccc1Cl` [I-1-183], the logP is on record as 2.75.
Same read-out and setting: the result for `Cc1cc(C#N)cc(C(N)=O)c1NC(=O)c1cc(Cn2ccc(C(F)(F)F)n2)nn1-c1ncccc1Cl` [I-1-184] reads 2.42; that for `Cc1cc(C#N)cc(C(=O)NCC#N)c1NC(=O)c1cc(Cn2ccc(C(F)(F)F)n2)nn1-c1ncccc1Cl` [I-1-185], 2.62; that for `CNC(=O)c1cc(C#N)cc(C)c1NC(=O)c1cc(Cn2nc(C(F)(F)F)cc2C(F)(F)F)nn1-c1ncccc1Cl` [I-1-186], 3.35.
The same measure, in the same setting: the result for `Cc1cc(C#N)cc(C(=O)NC(C)C)c1NC(=O)c1cc(Cn2nc(C(F)(F)F)cc2C(F)(F)F)nn1-c1ncccc1Cl` [I-1-187] reads 3.80.

Still in this data set, the particulars now being: HPLC on reverse-phase column.
`CSCC(C)(C)NC(=O)c1cc(Cl)cc(C)c1NC(=O)c1cc(Cn2cc(Br)c(C(F)(F)F)n2)nn1-c1ncccc1Cl` [I-1-131]: the logP came to 4.48.
On to `CNC(=O)c1cc(Cl)cc(C)c1NC(=O)c1cc(Cn2cnc(C(F)(F)F)c2)nn1-c1ncccc1Cl` [I-1-132], for which the logP amounted to 2.39.
As to `Cc1cc(Cl)cc(C(=O)NC(C)C)c1NC(=O)c1cc(Cn2cnc(C(F)(F)F)c2)nn1-c1ncccc1Cl` [I-1-133], the logP is recorded as 2.77.
Regarding `CSCC(C)(C)NC(=O)c1cc(Br)cc(C)c1NC(=O)c1cc(Cn2nc(C(F)(F)F)nc2C(F)(F)F)nn1-c1ncccc1Cl` [I-1-134], the logP stood at 4.63.
With `CSC[C@H](C)NC(=O)c1cc(Br)cc(C)c1NC(=O)c1cc(Cn2nc(C(F)(F)F)nc2C(F)(F)F)nn1-c1ncccc1Cl` [I-1-135], the lipophilicity (logP) was determined as 4.24.
`Cc1cc(Cl)cc(C(=O)NC(C)(C)C[S+](C)[O-])c1NC(=O)c1cc(Cn2cc(Br)c(C(F)(F)F)n2)nn1-c1ncccc1Cl` (centres unmarked) [I-1-136] returned a logP of 3.23.
Still for that read-out and setting: the result for `Cc1cc(Cl)cc(C(=O)NC(C)(C)C[S+](C)[O-])c1NC(=O)c1cc(Cn2nc(C(F)(F)F)nc2C(F)(F)F)nn1-c1ncccc1Cl` (centres unmarked) [I-1-137] reads 3.22.
Still for that read-out and setting: the result for `Cc1cc(Cl)cc(C(=O)N[C@@H](C)C[S+](C)[O-])c1NC(=O)c1cc(Cn2cc(Br)c(C(F)(F)F)n2)nn1-c1ncccc1Cl` (some centres unmarked) [I-1-138] reads 2.91.
On to `Cc1cc(Cl)cc(C(=O)NC(C)(C)CS(C)(=O)=O)c1NC(=O)c1cc(Cn2nc(C(F)(F)F)nc2C(F)(F)F)nn1-c1ncccc1Cl` [I-1-139], for which the logP was determined as 3.50.
On the same count and under the same terms, next, `Cc1cc(Br)cc(C(=O)N[C@@H](C)C[S+](C)[O-])c1NC(=O)c1cc(Cn2nc(C(F)(F)F)nc2C(F)(F)F)nn1-c1ncccc1Cl` (some centres unmarked) [I-1-140]: 3.05; `Cc1cc(Cl)cc(C(=O)N[C@@H](C)CS(C)(=O)=O)c1NC(=O)c1cc(Cn2cc(Br)c(C(F)(F)F)n2)nn1-c1ncccc1Cl` [I-1-141]: 3.26.
The same measure, in the same setting: the result for `Cc1cc(Br)cc(C(=O)NC(C)(C)CS(C)(=O)=O)c1NC(=O)c1cc(Cn2nc(C(F)(F)F)nc2C(F)(F)F)nn1-c1ncccc1Cl` [I-1-142] reads 3.67; that for `Cc1cc(Br)cc(C(=O)NC(C)(C)C[S+](C)[O-])c1NC(=O)c1cc(Cn2nc(C(F)(F)F)nc2C(F)(F)F)nn1-c1ncccc1Cl` (centres unmarked) [I-1-143], 3.20; that for `Cc1cc(Br)cc(C(=O)NC(C)(C)C[S+](C)[O-])c1NC(=O)c1cc(Cn2nc(C(F)(F)F)nc2C(F)(F)F)nn1-c1ncccc1Cl` (centres unmarked) [I-1-144], 3.38.
On the same count and under the same terms, next, `Cc1cc(Cl)cc(C(=O)NC(C)(C)CS(C)(=O)=O)c1NC(=O)c1cc(Cn2cc(Br)c(C(F)(F)F)n2)nn1-c1ncccc1Cl` [I-1-145]: 3.56; `Cc1cc(Br)cc(C(=O)N[C@@H](C)CS(C)(=O)=O)c1NC(=O)c1cc(Cn2nc(C(F)(F)F)nc2C(F)(F)F)nn1-c1ncccc1Cl` [I-1-146]: 3.36; `Cc1cc(Cl)cc(C(=O)N[C@@H](C)C[S+](C)[O-])c1NC(=O)c1cc(Cn2nc(C(F)(F)F)nc2C(F)(F)F)nn1-c1ncccc1Cl` (some centres unmarked) [I-1-147]: 2.95.
Take `CNC(=O)c1cc(Cl)cc(C)c1NC(=O)c1cc(Cn2nnc(-c3ccc(Cl)nc3)n2)nn1-c1ncccc1Cl` [I-1-148]: the logP was 2.91.
On the same count and under the same terms, the result for `Cc1cc(Cl)cc(C(=O)NC(C)C)c1NC(=O)c1cc(Cn2nnc(-c3ccc(Cl)nc3)n2)nn1-c1ncccc1Cl` [I-1-149] reads 3.41; that for `CNC(=O)c1cc(Cl)cc(C)c1NC(=O)c1cc(Cn2nnc(-c3ccc(Br)cc3)n2)nn1-c1ncccc1Cl` [I-1-150], 3.70.
